Data: patent US7449447B2, “Peptidomimetic NS3-serine protease inhibitors of hepatitis C virus” (priority 2003, dated 2008)

target: T1, HCV NS3/NS4a serine protease (Hepatitis C virus genotype 1b, UniProt P26663); test: Spectrophotometric assay for HCV protease inhibitory activity (chromogenic ester substrates); assay type: biochemical, hepatitis C virus (strain 1b); conditions: Ki Rating, Table 2; single chain NS4A21-32-GSGS-NS3 3-181 protease, 30° C., pH 6.5
T1 construct: amino terminus of the NS3 protease domain (amino acids 3-181) with a tetrapeptide linker; made in house; host or cells: E. coli
Procedure: Spectrophotometric Assay: Spectrophotometric assays for the HCV serine protease were performed on the inventive compounds by following the procedure described by R. Zhang et al., Analytical Biochemistry, 270 (1999) 268-275, the disclosure of which is incorporated herein by reference. The assay based on the proteolysis of chromogenic ester substrates is suitable for the continuous monitoring of HCV NS3 protease activity.
HCV NS3 protease (strain 1b) and its NS4A cofactor were constructed as a recombinant single chain protein. The NS4A cofactor domain (amino acid residues 21-32) was fused in frame to the amino terminus of the NS3 protease domain (amino acids 3-181) with a tetrapeptide linker. This NS4A 21-32-GSGS-NS33-181 construct was then expressed in E. coli and purified to >90% homogeneity. Kinetic parameters were determined and found to be the same as that of the full length NS31-631/NS4A1-54 protein complex produced in the baculovirus system (D. L. Sali et al, Biochemistry, 37 (1998) 3392-340). The details of the cloning, expression, purification and kinetic analysis of the of the single chain recombinant protease have been previously described (S. S. Taremi, et al. Protein Science. 7 (1998) 2143-2149.
Protein concentrations were determined by the Biorad dye method using recombinant HCV protease standards previously quantified by amino acid analysis. Prior to assay initiation, the enzyme storage buffer (50 mM sodium phosphate pH 8.0, 300 mM NaCl, 10% glycerol, 0.05% lauryl maltoside and 10 mM DTT) was exchanged for the assay buffer (25 mM MOPS pH 6.5, 300 mM NaCl, 10% glycerol, 0.05% lauryl maltoside, 5 μM EDTA and 5 μM DTT) utilizing a Biorad Bio-Spin P-6 prepacked column.
Protease Assay: HCV protease assays were performed at 30° C. using a 200 μl reaction mix in a 96-well microtiter plate. Assay buffer conditions (25 mM MOPS pH 6.5, 300 mM NaCl, 10% glycerol, 0.05% lauryl maltoside, 5 μM EDTA and 5 μM DTT) were optimized for the NS3/NS4A heterodimer (D. L. Sali et al, ibid.)). Typically, 100 μl mixtures of buffer, substrate and inhibitor were placed in wells and allowed to preincubate at 30° C. for approximately 3 minutes. One hundred μls of pre-warmed protease (30° C.) in assay buffer, was then used to initiate the reaction to produce a final concentration of 1.3 nM HCV). The Substrate cleavage by the protease was monitored over 60 minutes by measuring the release of the phenylazophenol (PAP) product at an absorbance of 370 nm with a continuous read every 30 seconds using a SpectraMax Plus microtiter plate reader (Molecular Devices, Sunnyvale, Calif.). Background hydrolysis of the substrate was subtracted. Inhibitors were tested over a range of concentrations (final DMSO concentration 4%)
Evaluation of Inhibitors The inhibition constants (Ki) for the competitive inhibitors were determined experimentally at fixed concentrations of enzyme and substrate by plotting vo/vi vs. inhibitor concentration ([I]o) according to the rearranged Michaelis-Menten equation for competitive inhibition kinetics: vo/vi=1+[I]o/(Ki(1+[S]o/Km)), where vo is the uninhibited initial velocity, vi is the initial velocity in the presence of inhibitor at any given inhibitor concentration ([I]o) and [S]o is the substrate concentration used. The resulting data were fitted using linear regression and the resulting slope, 1/(Ki(1+[S]o/Km), was used to calculate the Ki value.

T1 sequence (P26663 1013-1207, looked up, natural form): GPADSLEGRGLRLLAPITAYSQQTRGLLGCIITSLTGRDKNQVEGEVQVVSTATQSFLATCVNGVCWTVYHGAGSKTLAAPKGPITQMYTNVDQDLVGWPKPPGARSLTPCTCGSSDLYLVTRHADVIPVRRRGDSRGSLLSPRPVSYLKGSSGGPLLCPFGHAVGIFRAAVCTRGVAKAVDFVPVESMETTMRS

| Structure (SMILES) | Ki [nM] |
| --- | --- |
| COC(=O)c1ccc(CCNC(=O)[C@H](CC(F)F)NC(=O)[C@@H]2[C@@H]3[C@H](CN2C(=O)[C@@H](NC(=O)N[C@H](C(=O)OC(C)(C)C)C(C)(C)C)C(C)(C)C)C3(C)C)cc1 [Example 139] | 100 to 500 |
| CC(C)[C@H](NC(=O)N[C@H](C(=O)N1C[C@H]2[C@@H]([C@H]1C(=O)NC(CC(F)F)C(=O)NCCc1ccccc1)C2(C)C)C(C)(C)C)C(=O)OC(C)(C)C (stereo partly shown) [Example 140] | 100 to 500 |
| CC(C)[C@H](NC(=O)N[C@H](C(=O)N1C[C@H]2[C@@H]([C@H]1C(=O)N[C@@H](CC(F)F)C(=O)NCCc1ccc(C(=O)N(C)C)cc1)C2(C)C)C(C)(C)C)C(=O)OC(C)(C)C [Example 141] | 100 to 500 |
| COC[C@@H](NC(=O)N[C@H](C(=O)N1C[C@H]2[C@@H]([C@H]1C(=O)N[C@@H](CC(F)F)C(=O)NCCc1ccc(C(=O)OC)cc1)C2(C)C)C(C)(C)C)C(C)(C)C [Example 142] | 100 to 500 |
| COC(=O)c1ccc(CCNC(=O)[C@H](CC(F)F)NC(=O)[C@@H]2[C@@H]3[C@H](CN2C(=O)[C@@H](NC(=O)N[C@H](C(=O)OCC2CC2)C(C)(C)C)C(C)(C)C)C3(C)C)cc1 [Example 143] | 100 to 500 |
| CC(C)[C@H](NC(=O)N[C@H](C(=O)N1C[C@H]2[C@@H]([C@H]1C(=O)N[C@@H](CC(F)F)C(=O)NCCc1ccc(C(N)=O)cc1)C2(C)C)C(C)(C)C)C(N)=O [Example 144] | 100 to 500 |
| CC1(NC(=O)N[C@H](C(=O)N2C[C@H]3[C@@H]([C@H]2C(=O)NC(CC(F)F)C(=O)NCCc2ccccc2)C3(C)C)C(C)(C)C)CCCCC1 (stereo partly shown) [Example 145] | > 500 |
| CC(C)[C@H](NC(=O)N[C@H](C(=O)N1C[C@H]2[C@@H]([C@H]1C(=O)NC(CC(F)F)C(=O)NCCc1ccc(C(=O)O)cc1)C2(C)C)C(C)(C)C)C(=O)O (stereo partly shown) [Example 146] | > 500 |
| CC(C)[C@H](NC(=O)N[C@H](C(=O)N1C[C@H]2[C@@H]([C@H]1C(=O)NC(CC(F)F)C(=O)NCCc1ccccc1Cl)C2(C)C)C(C)(C)C)C(=O)OC(C)(C)C (stereo partly shown) [Example 147] | > 500 |
| COC(=O)c1ccc(CCNC(=O)[C@H](CC(F)F)NC(=O)[C@@H]2[C@@H]3[C@H](CN2C(=O)[C@@H](NC(=O)OC(C)(C)C)C(C)(C)C)C3(C)C)cc1 [Example 148] | > 500 |
| COC(=O)c1ccc(CCNC(=O)C(CC(F)F)NC(=O)[C@@H]2[C@@H]3[C@H](CN2C(=O)[C@@H](NC(=O)N[C@H](C(=O)OC(C)(C)C)C(C)C)C(C)(C)C)C3(C)C)cc1 (stereo partly shown) [Example 149] | > 500 |
| CC(C)[C@H](NC(=O)N[C@H](C(=O)N1C[C@@H]2OC(C)(C)C[C@@H]2[C@H]1C(=O)N[C@@H](CC(F)F)C(=O)NCCc1ccc(C(=O)O)cc1)C1CCCCC1)C(=O)OC(C)(C)C [Example 150] | > 500 |
| CC(C)(C)OC(=O)N[C@H](C(=O)N1C[C@H]2[C@@H]([C@H]1C(=O)NC(CC(F)F)C(=O)NCCc1ccccc1)C2(C)C)C(C)(C)C (stereo partly shown) [Example 151] | > 500 |
| CC(C)[C@H](NC(=O)N[C@H](C(=O)N1C[C@@H]2OC(C)(C)C[C@@H]2[C@H]1C(=O)N[C@@H](CC(F)F)C(=O)NCCc1ccccc1)C1CCCCC1)C(=O)OC(C)(C)C [Example 152] | > 500 |
| CC(C)[C@H](NC(=O)N[C@H](C(=O)N1C[C@H]2[C@@H]([C@H]1C(=O)N[C@@H](CC(F)F)C(=O)O)C2(C)C)C(C)(C)C)C(=O)OC(C)(C)C [Example 153] | > 500 |
| COC(=O)c1ccc(CCNC(=O)[C@H](CC(F)F)NC(=O)[C@@H]2[C@H]3CC(C)(C)O[C@H]3CN2C(=O)[C@@H](NC(=O)N[C@H](C(=O)OC(C)(C)C)C(C)C)C2CCCCC2)cc1 [Example 154] | > 500 |
| CC1(NC(=O)N[C@H](C(=O)N2C[C@H]3[C@@H]([C@H]2C(=O)N[C@@H](CC(F)F)C(=O)NCCC(=O)OC(C)(C)C)C3(C)C)C(C)(C)C)CCCCC1 [Example 155] | > 500 |
| CC1(NC(=O)N[C@H](C(=O)N2C[C@H]3[C@@H]([C@H]2C(=O)NC(CC(F)F)C(=O)O)C3(C)C)C(C)(C)C)CCCCC1 (stereo partly shown) [Example 156] | > 500 |
| CC(C)[C@H](NC(=O)N[C@H](C(=O)N1C[C@H]2[C@@H]([C@H]1C(=O)N[C@@H](CC(F)F)C(N)=O)C2(C)C)C(C)(C)C)C(=O)O [Example 157] | > 500 |
